For orientation: Kd means a measure of binding affinity in units of concentration.

For assay [1], the target named is T1, dengue virus envelope protein 2 (DENV2) (Dengue virus type 2, UniProt P29990).
T1 construct: Dengue virus envelope protein 2 (DENV2) was purchased from the Native Antigen Company; purchased Native Antigen Company
Kind of assay: SPR binding study of GlcA glycodendrimers on immobilized DENV2 (Biacore 3000, CM4 chip). Also on record: species or system dengue virus serotype 2. The settings on record: for SPR binding response: GD flowed at 100 μM over immobilized DENV2; for Kd: read-out: dissociation constant KD, steady-state analysis of SPR, 1:1 Langmuir model, immobilized DENV2, 25 °C. On the procedure:
In order to evaluate the ability of GDs 4a–f, 9a–c, and 12a–c to interact with dengue virus envelope protein 2 (DENV2), an SPR binding study was carried out.
Compounds 4a–f, 9a–c, and 12a–c were flowed on immobilized DENV2 at a concentration of 100 μM (Figure 1).
Dengue virus envelope protein 2 (DENV2) was purchased from the Native Antigen Company. SPR sensor chips CM4 (carboxymethylated dextran) and other reagents used in SPR experiments were purchased from GE Healthcare. SPR experiments were performed with a Biacore 3000.
SPR experiments were performed at 25 °C with a Biacore 3000 (GE Healthcare). PBST (10 mm phosphate, pH 7.40, 150 mm NaCl, and 0.005% v/v surfactant P20) was used as a running buffer. A solution with the dengue virus serotype 2 protein (DENV2) was adjusted to 20 μg/mL in 10 mM citrate pH 4.00 buffer, and the protein was immobilized in flow cell 1 of a CM4 sensor chip by following the amine coupling method according to the manufacturer’s instructions. Prior to injection over the sensor chip, DENV2 was mixed with a 4-fold molar excess of HS, for 30 min at 4 °C, to protect the GAG-binding domains of the envelope protein. The immobilization response was 2000 RU, and then, the sensor surface was washed with 1 M NaCl to remove the bound HS. Sensor chip flow cell 2 was activated, blocked, and used as a reference surface. Blank samples and concentration series were injected on a CM4 chip at a flow rate of 40 μL/min for 180 s, and dissociation was registered for 180 s.
Initially, compounds 4a–f, 9a–c, and 12a–c were flowed on the immobilized DENV2 at a 100 μM concentration. Then different concentration of GDs (5–125 μM) were flowed on the immobilized DENV2 (compound 12b: 5–125 μM; 12c: 5–150 μM; 9b: 25–250 μM; 4c: 25-250 μM).25–250 μM). Data processing and analysis were carried out with Biaevaluation v.4.1.1 (GE Healthcare).
All signals were blank-subtracted, reference-corrected, and globally adjusted to an adequate kinetic model to obtain binding parameters. […] Instead, a steady-state analysis kinetic analysis was carried out assuming the 1:1 Langmuir model. The value of KA is obtained by fitting a plot of RU in the plateau region against the GD concentration, which generates the following equations. [drawing 1] [drawing 2] [drawing 3] [drawing 4] KD is calculated as the inverse of KA (KD = 1/KA).

For another assay, the target named is DENV2 envelope protein. The settings on record: SPR, same experimental conditions as current study; cited from earlier work. In general terms: Surface plasmon resonance follows binding to a sensor surface in real time, without labels.

Regarding `O=C(O)[C@H]1O[C@@H](OCCCn2cc(COc3cc(COCC(COCc4cc(OCc5cn(CCCO[C@@H]6O[C@H](C(=O)O)[C@@H](O)[C@H](O)[C@H]6O)nn5)cc(OCc5cn(CCCO[C@@H]6O[C@H](C(=O)O)[C@@H](O)[C@H](O)[C@H]6O)nn5)c4)(COCc4cc(OCc5cn(CCCO[C@@H]6O[C@H](C(=O)O)[C@@H](O)[C@H](O)[C@H]6O)nn5)cc(OCc5cn(CCCO[C@@H]6O[C@H](C(=O)O)[C@@H](O)[C@H](O)[C@H]6O)nn5)c4)COCc4cc(OCc5cn(CCCO[C@@H]6O[C@H](C(=O)O)[C@@H](O)[C@H](O)[C@H]6O)nn5)cc(OCc5cn(CCCO[C@@H]6O[C@H](C(=O)O)[C@@H](O)[C@H](O)[C@H]6O)nn5)c4)cc(OCc4cn(CCCO[C@@H]5O[C@H](C(=O)O)[C@@H](O)[C@H](O)[C@H]5O)nn4)c3)nn2)[C@H](O)[C@@H](O)[C@@H]1O` [12c], in assay [1], the SPR binding response turned out to be 153 RU and the Kd is 624 nM.
The matching figures for `O=C(O)[C@H]1O[C@@H](OCCCn2cc(COc3cc(COCCN(CCOCc4cc(OCc5cn(CCCO[C@@H]6O[C@H](C(=O)O)[C@@H](O)[C@H](O)[C@H]6O)nn5)cc(OCc5cn(CCCO[C@@H]6O[C@H](C(=O)O)[C@@H](O)[C@H](O)[C@H]6O)nn5)c4)CCOCc4cc(OCc5cn(CCCO[C@@H]6O[C@H](C(=O)O)[C@@H](O)[C@H](O)[C@H]6O)nn5)cc(OCc5cn(CCCO[C@@H]6O[C@H](C(=O)O)[C@@H](O)[C@H](O)[C@H]6O)nn5)c4)cc(OCc4cn(CCCO[C@@H]5O[C@H](C(=O)O)[C@@H](O)[C@H](O)[C@H]5O)nn4)c3)nn2)[C@H](O)[C@@H](O)[C@@H]1O` [12b]: 203.4 RU and 487 nM.
As for heparin [reference compound], the “fold difference of KD of heparin versus GDs 12b and 12c” value in assay [1] (heparin KD 56 nM vs 12b and 12c KD) is 8.6–11 fold. Moreover, at DENV2 envelope protein, the Kd was 56 nM.
As to `O=C(O)[C@H]1O[C@@H](OCCCn2cc(COc3cc4c5cc(OCc6cn(CCCO[C@@H]7O[C@H](C(=O)O)[C@@H](O)[C@H](O)[C@H]7O)nn6)c(OCc6cn(CCCO[C@@H]7O[C@H](C(=O)O)[C@@H](O)[C@H](O)[C@H]7O)nn6)cc5c5cc(OCc6cn(CCCO[C@@H]7O[C@H](C(=O)O)[C@@H](O)[C@H](O)[C@H]7O)nn6)c(OCc6cn(CCCO[C@@H]7O[C@H](C(=O)O)[C@@H](O)[C@H](O)[C@H]7O)nn6)cc5c4cc3OCc3cn(CCCO[C@@H]4O[C@H](C(=O)O)[C@@H](O)[C@H](O)[C@H]4O)nn3)nn2)[C@H](O)[C@@H](O)[C@@H]1O` [4e], the SPR binding response in assay [1] was found to be 0.0 RU.
Still for that read-out and setting: with `O=C(O)[C@H]1O[C@@H](OCCCn2cc(COc3cc(COc4cc(COCc5cc(OCc6cc(OCc7cn(CCCO[C@@H]8O[C@H](C(=O)O)[C@@H](O)[C@H](O)[C@H]8O)nn7)cc(OCc7cn(CCCO[C@@H]8O[C@H](C(=O)O)[C@@H](O)[C@H](O)[C@H]8O)nn7)c6)cc(OCc6cc(OCc7cn(CCCO[C@@H]8O[C@H](C(=O)O)[C@@H](O)[C@H](O)[C@H]8O)nn7)cc(OCc7cn(CCCO[C@@H]8O[C@H](C(=O)O)[C@@H](O)[C@H](O)[C@H]8O)nn7)c6)c5)cc(OCc5cc(OCc6cn(CCCO[C@@H]7O[C@H](C(=O)O)[C@@H](O)[C@H](O)[C@H]7O)nn6)cc(OCc6cn(CCCO[C@@H]7O[C@H](C(=O)O)[C@@H](O)[C@H](O)[C@H]7O)nn6)c5)c4)cc(OCc4cn(CCCO[C@@H]5O[C@H](C(=O)O)[C@@H](O)[C@H](O)[C@H]5O)nn4)c3)nn2)[C@H](O)[C@@H](O)[C@@H]1O` [9c] the figure was 0.0 RU; with `O=C(O)[C@H]1O[C@@H](OCCCn2cc(COc3cc(COc4cc(OCc5cc(OCc6cn(CCCO[C@@H]7O[C@H](C(=O)O)[C@@H](O)[C@H](O)[C@H]7O)nn6)cc(OCc6cn(CCCO[C@@H]7O[C@H](C(=O)O)[C@@H](O)[C@H](O)[C@H]7O)nn6)c5)cc(OCc5cc(OCc6cn(CCCO[C@@H]7O[C@H](C(=O)O)[C@@H](O)[C@H](O)[C@H]7O)nn6)cc(OCc6cn(CCCO[C@@H]7O[C@H](C(=O)O)[C@@H](O)[C@H](O)[C@H]7O)nn6)c5)c4)cc(OCc4cn(CCCO[C@@H]5O[C@H](C(=O)O)[C@@H](O)[C@H](O)[C@H]5O)nn4)c3)nn2)[C@H](O)[C@@H](O)[C@@H]1O` [4d], 0.3 RU; with `O=C(O)[C@H]1O[C@@H](OCCCn2cc(CN(Cc3cn(CCCO[C@@H]4O[C@H](C(=O)O)[C@@H](O)[C@H](O)[C@H]4O)nn3)Cc3cn(CCCO[C@@H]4O[C@H](C(=O)O)[C@@H](O)[C@H](O)[C@H]4O)nn3)nn2)[C@H](O)[C@@H](O)[C@@H]1O` [12a], 9.8 RU.
For `O=C(O)[C@H]1O[C@@H](OCCCn2cc(COc3cc(COCc4cc(OCc5cn(CCCO[C@@H]6O[C@H](C(=O)O)[C@@H](O)[C@H](O)[C@H]6O)nn5)c(OCc5cn(CCCO[C@@H]6O[C@H](C(=O)O)[C@@H](O)[C@H](O)[C@H]6O)nn5)c(OCc5cn(CCCO[C@@H]6O[C@H](C(=O)O)[C@@H](O)[C@H](O)[C@H]6O)nn5)c4)cc(OCc4cn(CCCO[C@@H]5O[C@H](C(=O)O)[C@@H](O)[C@H](O)[C@H]5O)nn4)c3OCc3cn(CCCO[C@@H]4O[C@H](C(=O)O)[C@@H](O)[C@H](O)[C@H]4O)nn3)nn2)[C@H](O)[C@@H](O)[C@@H]1O` [9b], in assay [1], the SPR binding response is recorded as 68.5 RU and the Kd came out at 1750 nM.
In assay [1], `O=C(O)[C@H]1O[C@@H](OCCCn2cc(COc3cc(COCc4cc(OCc5cn(CCCO[C@@H]6O[C@H](C(=O)O)[C@@H](O)[C@H](O)[C@H]6O)nn5)cc(OCc5cn(CCCO[C@@H]6O[C@H](C(=O)O)[C@@H](O)[C@H](O)[C@H]6O)nn5)c4)cc(OCc4cn(CCCO[C@@H]5O[C@H](C(=O)O)[C@@H](O)[C@H](O)[C@H]5O)nn4)c3)nn2)[C@H](O)[C@@H](O)[C@@H]1O` [9a] registered an SPR binding response of 5.0 RU.
Regarding `O=C(O)[C@H]1O[C@@H](OCCCn2cc(COc3cc(OCc4cn(CCCO[C@@H]5O[C@H](C(=O)O)[C@@H](O)[C@H](O)[C@H]5O)nn4)cc(OCc4cn(CCCO[C@@H]5O[C@H](C(=O)O)[C@@H](O)[C@H](O)[C@H]5O)nn4)c3)nn2)[C@H](O)[C@@H](O)[C@@H]1O` [4c], in assay [1], the SPR binding response is 60.8 RU.
